According to ChEMBL document CHEMBL1201862, “PubChem BioAssay data set” (2004):
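Test compounds were applied to cells in 96-well plates for 48 hours at 5 doses. Here, GI50 denotes the concentration required for 50% inhibition of growth.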 Calls of active or inactive are those of the source. No stated cut-off is given here; in the data, active = GI50 up to about 1.1 µM and inactive = higher. Bridge positions count the residues as written; N and C are the ends. Square brackets hold non-standard residues; d marks the D form. Peptide text beside a SMILES is read from it. I, II: the chains in the order shown. * marks the point of attachment. Quinoxaline2carbonyl = O=C(c1cnc2ccccc2n1)*; NMeV = CN[CH](C(=O)O)C(C)C; NMeC = CN[CH](CS)C(=O)O

Key:
Assay in all cases: NCI-60 cell line screen, 48 h
CAKI-1 = system: CAKI-1
HCT-116 = system: HCT-116
HOP-62 = system: HOP-62
HT-29 = system: HT-29
Hs-578T = system: Hs-578T
LOX IMVI = system: LOX IMVI
M14 = system: M14
NCI-H460 = system: NCI-H460
OVCAR-8 = system: OVCAR-8
PC-3 = system: PC-3
RPMI-8226 = system: RPMI-8226
SR = system: SR
SW-620 = system: SW-620
TK-10 = system: TK-10
U-251 = system: U-251

Row | SMILES | GI50 (CAKI-1) | GI50 (HCT-116) | GI50 (HOP-62) | GI50 (HT-29) | GI50 (Hs-578T) | GI50 (LOX IMVI) | GI50 (M14) | GI50 (NCI-H460) | GI50 (OVCAR-8) | GI50 (PC-3) | GI50 (RPMI-8226) | GI50 (SR) | GI50 (SW-620) | GI50 (TK-10) | GI50 (U-251)
1 | CC1NC(=O)C(NC(=O)c2cnc3ccccc3n2)COC(=O)C(C(C)C)N(C)C(=O)C2CSSCC(C(=O)N(C)C(C(C)C)C(=O)OCC(NC(=O)c3cnc4ccccc4n3)C(=O)NC(C)C(=O)N2C)N(C)C1=O (stereo not given) (I: Quinoxaline2carbonyl-SA[NMeC][NMeV] / II: Quinoxaline2carbonyl-SA[NMeC][NMeV]; ester I:1-II:C, I:C-II:1; disulfide I:3-II:3; configuration not given here) | < 0.01 µM (active) | < 0.01 µM (active) | < 0.01 µM (active) | < 0.01 µM (active) | < 0.01 µM (active) | < 0.01 µM (active) | < 0.01 µM (active) | < 0.01 µM (active) | < 0.01 µM (active) | < 0.01 µM (active) | < 0.01 µM (active) | 0.114 µM (active) | < 0.01 µM (active) | < 0.01 µM (active) | < 0.01 µM (active)
2 | CC1C(c2ccc(N(C)C)cc2)c2cc3c(cc2OC1N1CCCC1)OCO3 (stereo not given) | 38.5 µM (inactive) | 36.4 µM (inactive) | 25.2 µM (inactive) | 32.5 µM (inactive) | 28.8 µM (inactive) | 38.2 µM (inactive) | 31.9 µM (inactive) | 34.5 µM (inactive) | 70.3 µM (inactive) | 37.3 µM (inactive) | 36.1 µM (inactive) | 38.8 µM (inactive) | 42 µM (inactive) | 98.6 µM (inactive) | 34 µM (inactive)
3 | COC1C(O)C(C)OC(O[C@@H]2C[C@H]3CC[C@@H]4[C@H](CC[C@]5(C)[C@@H](C6=CC(=O)OC6)CC[C@]45O)[C@@]3(C)[C@H](O)C2)C1O (stereo not given in full) | 0.0225 µM (active) | < 0.0225 µM (active) | 0.0333 µM (active) | 0.0849 µM (active) | 0.182 µM (active) | < 0.0362 µM (active) | 0.0741 µM (active) | 0.0347 µM (active) | 0.0472 µM (active) | 0.0755 µM (active) | 0.0512 µM (active) | 0.0766 µM (active) | 0.0782 µM (active) | 0.0361 µM (active) | 0.0849 µM (active)
4 | CO[C@@]12C[C@@H](C)C3=CCC(C)=C3CC1=C(C)C(=O)O2 | > 100 µM (inactive) | > 100 µM (inactive) |  | > 100 µM (inactive) | > 100 µM (inactive) | > 100 µM (inactive) | > 100 µM (inactive) | > 100 µM (inactive) | > 100 µM (inactive) | 85.7 µM (inactive) | 57.8 µM (inactive) | 44.2 µM (inactive) | > 100 µM (inactive) | > 100 µM (inactive) | > 100 µM (inactive)
5 | CC1(C)CCCOc2cccc(c2)OCCCC(C)(C)C1=O | 46.2 µM (inactive) | 26.6 µM (inactive) | 30.6 µM (inactive) | 19.8 µM (inactive) | 39.7 µM (inactive) | 20.7 µM (inactive) | 33.9 µM (inactive) | 25.1 µM (inactive) |  | 14.8 µM (inactive) | 26.7 µM (inactive) | 34 µM (inactive) | 27 µM (inactive) | > 100 µM (inactive) | 35.2 µM (inactive)
6 | CC(=O)On1c(-c2ccccc2-c2nc3ccccc3n2OC(C)=O)nc2ccccc21 | > 100 µM (inactive) | 25 µM (inactive) | 97.9 µM (inactive) |  | 37.8 µM (inactive) | 18.5 µM (inactive) | 33.8 µM (inactive) |  | 36.5 µM (inactive) | 4.43 µM (inactive) | 7.82 µM (inactive) | 19.1 µM (inactive) | 34.4 µM (inactive) | 68.1 µM (inactive) | 12.8 µM (inactive)
7 | C/C(=C1\C(=O)C(c2ccccc2)N(c2ccccc2)C1=O)c1ccc(Cl)cc1 (stereo not given) | 24.4 µM (inactive) | 16.4 µM (inactive) | 23.1 µM (inactive) | 17.4 µM (inactive) | 18.7 µM (inactive) | 14.9 µM (inactive) | 19.8 µM (inactive) | 29.6 µM (inactive) |  | 14.3 µM (inactive) | 15.4 µM (inactive) | 20.6 µM (inactive) | 22.8 µM (inactive) | 22 µM (inactive) | 15.9 µM (inactive)
